Measurements as given in publication PMC7536232, “Saturation transfer difference NMR on the integral trimeric membrane transport protein GltPh determines cooperative substrate binding” (Scientific Reports, 2020).

Molecular target: T1, GltPh (Pyrococcus horikoshii, UniProt O59010)
T1 construct: gene PH1295; WT GltPh, homotrimer, detergent-solubilised (DDM)
T1 sequence (O59010 1-425): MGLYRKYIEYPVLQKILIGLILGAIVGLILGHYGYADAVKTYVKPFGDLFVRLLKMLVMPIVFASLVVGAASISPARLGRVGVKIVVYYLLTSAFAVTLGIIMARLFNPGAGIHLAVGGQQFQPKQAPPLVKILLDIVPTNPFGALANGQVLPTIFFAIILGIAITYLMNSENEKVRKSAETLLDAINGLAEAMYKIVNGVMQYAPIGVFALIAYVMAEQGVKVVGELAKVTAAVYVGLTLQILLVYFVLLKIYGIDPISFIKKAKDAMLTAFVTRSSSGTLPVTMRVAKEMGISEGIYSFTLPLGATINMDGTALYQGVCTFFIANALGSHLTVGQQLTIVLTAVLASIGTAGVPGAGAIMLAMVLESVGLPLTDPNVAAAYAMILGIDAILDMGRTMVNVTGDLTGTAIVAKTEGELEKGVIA
Assay: STD NMR titration, γ-protons; DDM micelles ([…] in proteoliposomes)
Format: binding

N[C@@H](CCC(=O)O)C(=O)O [L-glutamate]
Kd: 414 µM
